Reference: publication PMC3325286, “Structural and Functional Diversity of Acidic Scorpion Potassium Channel Toxins” (PLoS ONE, 2012)
Read-outs that look alike come from different tables or passages of the source. Positions of bridges follow the written chain, without caps; N, C: chain ends. Residues, ends and D or L forms follow the SMILES beside them. No end group written: not given here.

Assays:
[1] = target: T1, KCNQ1 channel (Homo sapiens, UniProt P15382+P51787)
[2] = test system: Kv1.x channel; conditions: cited from earlier work
[3] = target: T1, KCNQ1 channel; assay: cell-based; conditions: for inhibition at 10 µM: HEK293, read-out: Inhibition of KCNQ1 channel current; for inhibition at 1 µM: HEK293, read-out: Inhibition of KCNQ1 channel current, ImKTx104 and mutants
[4] = test system: TRPV1 channel; assay: Patch-clamp inhibition of TRPV1 channel current in transfected HEK293 cells; type: cell-based; conditions: 1 µM concentration; n>3
[5] = test system: SKCa channel; assay: Patch-clamp inhibition of SKCa channel current in transfected HEK293 cells; type: cell-based; conditions: 1 µM concentration; n>3
[6] = test system: BKCa channel; assay: Patch-clamp inhibition of BKCa channel current in transfected HEK293 cells; type: cell-based; conditions: 1 µM concentration; n>3
[7] = test system: Kv1.3 channel; assay: Patch-clamp inhibition of Kv1.3 channel current in transfected HEK293 cells; type: cell-based
[8] = test system: Kv1.2 channel; assay: Patch-clamp inhibition of Kv1.2 channel current in transfected HEK293 cells; type: cell-based; conditions: 1 µM ImKTx104 (Fig. S2); n>3
[9] = test system: Kv1.1 channel; assay: Patch-clamp inhibition of Kv1.1 channel current in transfected HEK293 cells; type: cell-based; conditions: 1 µM ImKTx104 (Fig. S2); n>3

T1 sequence (P51787 whole entry, looked up): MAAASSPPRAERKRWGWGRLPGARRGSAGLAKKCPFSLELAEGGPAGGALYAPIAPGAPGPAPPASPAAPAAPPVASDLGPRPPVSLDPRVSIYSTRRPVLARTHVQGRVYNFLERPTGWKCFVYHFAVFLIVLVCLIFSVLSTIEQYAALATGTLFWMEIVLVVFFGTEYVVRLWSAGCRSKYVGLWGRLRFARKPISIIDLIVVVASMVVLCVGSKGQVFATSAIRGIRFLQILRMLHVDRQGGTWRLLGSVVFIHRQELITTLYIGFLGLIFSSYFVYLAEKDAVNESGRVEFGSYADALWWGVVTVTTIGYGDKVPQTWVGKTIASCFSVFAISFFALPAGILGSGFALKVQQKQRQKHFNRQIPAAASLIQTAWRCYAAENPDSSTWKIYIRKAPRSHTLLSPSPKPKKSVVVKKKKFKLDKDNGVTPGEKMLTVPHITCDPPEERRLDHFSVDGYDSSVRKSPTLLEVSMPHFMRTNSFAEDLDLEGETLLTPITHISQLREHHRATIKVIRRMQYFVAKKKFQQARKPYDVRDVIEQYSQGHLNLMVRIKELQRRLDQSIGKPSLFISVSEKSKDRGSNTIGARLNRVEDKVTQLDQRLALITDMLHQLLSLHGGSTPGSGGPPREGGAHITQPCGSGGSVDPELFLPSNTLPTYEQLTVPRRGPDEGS

For CC[C@H](C)[C@@H]1NC(=O)[C@H](C(C)C)NC(=O)[C@@H]2CSSC[C@@H]3NC(=O)[C@H](CCCCN)NC(=O)[C@H](CCC(N)=O)NC(=O)[C@@H]4CCCN4C(=O)CNC(=O)[C@H](CC(=O)O)NC(=O)[C@H](CSSC[C@H](NC(=O)[C@H](CO)NC(=O)[C@H](CCC(=O)O)NC(=O)[C@H](CCCCN)NC(=O)[C@@H]4CCCN4C(=O)[C@H](CCC(=O)O)NC(=O)[C@H](CCC(=O)O)NC(=O)[C@@H](N)CC(=O)O)C(=O)N[C@@H](CO)C(=O)N[C@@H](CC(=O)O)C(=O)N[C@@H](CCC(=O)O)C(=O)N[C@@H](CCSC)C(=O)N2)NC(=O)[C@H](C(C)C)NC(=O)CNC(=O)[C@H]([C@@H](C)O)NC(=O)[C@H](CO)NC(=O)[C@H](Cc2ccc(O)cc2)NC(=O)[C@H](CCC(=O)O)NC(=O)[C@H](CCC(=O)O)NC(=O)CNC(=O)[C@H](CCCCN)NC(=O)[C@H](CSSC[C@@H](C(=O)N[C@@H](CO)C(=O)N[C@@H](CC(=O)O)C(=O)O)NC(=O)[C@H](CCCCN)NC3=O)NC(=O)[C@H](Cc2ccc(O)cc2)NC1=O [PbTx1, reference compound] (H-DEEPKESCSDEMCVIYCKGEEYSTGVCDGPQKCKCSD-OH; disulfide 8-27, 13-33, 17-35), the “Effect on KCNQ1 channel (in words)” value [1] is listed as “only weak inhibitors”, the “Block of Kv1.x channel (in words)” value [2] is listed as “low activity (micromolar range)” and the inhibition at 10 µM [3] is listed as 21.4%.
In the case of CC[C@H](C)[C@@H]1NC(=O)[C@@H](NC(=O)[C@H](C)NC(=O)[C@H](CC(N)=O)NC(=O)CN)CSSC[C@@H](C(=O)N[C@@H](CC(=O)O)C(=O)N[C@@H](CCCCN)C(=O)O)NC(=O)[C@@H]2CCCN2C(=O)[C@H](CCCCN)NC(=O)[C@H](CC(=O)O)NC(=O)[C@@H]2CSSC[C@H](NC(=O)[C@H](C(C)C)NC(=O)[C@H](CCC(=O)O)NC1=O)C(=O)N[C@@H](CC(C)C)C(=O)N[C@@H](CCC(N)=O)C(=O)N[C@@H](Cc1c[nH]cn1)C(=O)N[C@@H]([C@@H](C)O)C(=O)NCC(=O)N[C@@H](CC(N)=O)C(=O)N1CCC[C@H]1C(=O)N[C@@H](C)C(=O)N[C@@H](CCC(=O)O)C(=O)N2 [HeTx204] (H-GNACIEVCLQHTGNPAECDKPCDK-OH; disulfide 4-22, 8-18), the “Effect on TRPV1 channel (in words)” value [4] is reported as “negligible effects”, the “Effect on SKCa channel (in words)” value [5] is reported as “negligible effects” and the “Washout of toxin from KCNQ1 channel (in words)” value ([1]; 10 µM) is reported as “could not be removed”. For the same compound, the “Effect on KCNQ1 channel (in words)” value ([1]; 10 µM concentration) was “effectively blocked”, the “Effect on BKCa channel (in words)” value [6] was “negligible effects” and the “Effect on Kv1.3 channel (in words)” value [7] was “effectively blocked”. It also gave an inhibition at 10 µM [3] of 44.9%.
For CC[C@H](C)[C@@H]1NC(=O)[C@H]([C@@H](C)O)NC(=O)[C@H](C)NC(=O)[C@H](Cc2ccc(O)cc2)NC(=O)[C@@H]2CSSC[C@@H](C(=O)N[C@@H](CCSC)C(=O)O)NC(=O)[C@H](CCCCN)NC(=O)[C@@H]3CSSC[C@H](NC(=O)[C@H](CC(=O)O)NC(=O)[C@H](CCC(=O)O)NC(=O)[C@H](Cc4c[nH]cn4)NC(=O)[C@H]([C@@H](C)O)NC(=O)[C@H](C(C)C)NC(=O)[C@@H](NC(=O)[C@H](C)N)CSSC[C@H](NC(=O)[C@H]([C@@H](C)O)NC(=O)CNC1=O)C(=O)N[C@@H](C(C)C)C(=O)N[C@@H](CC(=O)O)C(=O)NCC(=O)N[C@@H](CCCCN)C(=O)N3)C(=O)N[C@@H]([C@@H](C)O)C(=O)N[C@@H](CC(C)C)C(=O)N[C@@H](CC(C)C)C(=O)N2 [ImKTX104-D14A] (H-ACVTHEDCTLLCYATIGTCVDGKCKCM-OH; disulfide 2-19, 8-24, 12-26), the inhibition at 1 µM [3] was 25.6%.
In the case of CSCC[C@@H]1NC(=O)[C@@H]2CCCN2C(=O)[C@@H]2CSSC[C@@H]3NC(=O)[C@H](C(C)C)NC(=O)CNC(=O)[C@H](CC(=O)O)NC(=O)[C@H](CC(=O)O)NC(=O)[C@H](CSSC[C@H](NC(=O)CNC(=O)[C@@H](N)C(C)C)C(=O)N[C@@H](CCC(=O)O)C(=O)N[C@@H](CCC(=O)O)C(=O)N2)NC(=O)[C@H]([C@@H](C)O)NC(=O)[C@@H]2CCCN2C(=O)[C@H](CCCCN)NC(=O)[C@H](C)NC(=O)[C@H](CC(N)=O)NC(=O)[C@H](CCCCN)NC(=O)CNC(=O)[C@H](CCCCN)NC(=O)[C@H](CSSC[C@@H](C(=O)N[C@@H](CC(N)=O)C(=O)N[C@H](C(=O)O)C(C)C)NC(=O)[C@H](CC(N)=O)NC3=O)NC(=O)[C@H](Cc2c[nH]cn2)NC1=O [BmP02, reference compound] (H-VGCEECPMHCKGKNAKPTCDDGVCNCNV-OH; disulfide 3-19, 6-24, 10-26), the “Effect on KCNQ1 channel (in words)” value ([1]; 10 µM concentration) is reported as “only weak inhibitors” and the inhibition at 10 µM [3] is reported as 23.3%.
For CC[C@H](C)[C@@H]1NC(=O)[C@@H](NC(=O)[C@H](C)NC(=O)[C@H](CC(N)=O)NC(=O)CN)CSSC[C@@H](C(=O)N[C@@H](CC(=O)O)C(=O)N[C@@H](CCCCN)C(=O)O)NC(=O)[C@H](C)NC(=O)[C@H](CCCCN)NC(=O)[C@H](CC(=O)O)NC(=O)[C@@H]2CSSC[C@H](NC(=O)[C@H](C(C)C)NC(=O)[C@H](CCC(=O)O)NC1=O)C(=O)N[C@@H](CC(C)C)C(=O)N[C@@H](CCC(N)=O)C(=O)N[C@@H](Cc1c[nH]cn1)C(=O)N[C@@H]([C@@H](C)O)C(=O)NCC(=O)N[C@@H](CC(N)=O)C(=O)N1CCC[C@H]1C(=O)N[C@@H](C)C(=O)N[C@@H](CCC(=O)O)C(=O)N2 [HeTx203] (H-GNACIEVCLQHTGNPAECDKACDK-OH; disulfide 4-22, 8-18), the “Effect on KCNQ1 channel (in words)” value ([1]; 10 µM concentration) was “only weakly inhibited” and the inhibition at 10 µM [3] was 17.8%.
CC[C@H](C)[C@@H]1NC(=O)[C@H]([C@@H](C)O)NC(=O)[C@H](CC(=O)O)NC(=O)[C@H](Cc2ccc(O)cc2)NC(=O)[C@@H]2CSSC[C@@H](C(=O)N[C@@H](CCSC)C(=O)O)NC(=O)[C@H](C)NC(=O)[C@@H]3CSSC[C@H](NC(=O)[C@H](CC(=O)O)NC(=O)[C@H](CCC(=O)O)NC(=O)[C@H](Cc4c[nH]cn4)NC(=O)[C@H]([C@@H](C)O)NC(=O)[C@H](C(C)C)NC(=O)[C@@H](NC(=O)[C@H](C)N)CSSC[C@H](NC(=O)[C@H]([C@@H](C)O)NC(=O)CNC1=O)C(=O)N[C@@H](C(C)C)C(=O)N[C@@H](CC(=O)O)C(=O)NCC(=O)N[C@@H](CCCCN)C(=O)N3)C(=O)N[C@@H]([C@@H](C)O)C(=O)N[C@@H](CC(C)C)C(=O)N[C@@H](CC(C)C)C(=O)N2 [ImKTX104-K25A] (H-ACVTHEDCTLLCYDTIGTCVDGKCACM-OH; disulfide 2-19, 8-24, 12-26) showed an inhibition at 1 µM [3] of 21.4%.
For “EDKLKCTKTDDCAKYCSQFTDVHPACLGGYCECLRWEGGISS (disulfide 6-26, 12-31, 16-33) [StKTx23]”, the “Effect on KCNQ1 channel (in words)” value ([1]; 10 µM concentration) was “did not inhibit”, the “Effect on Kv1.3 channel (in words)” value [7] was “effectively blocked” and the inhibition at 10 µM [3] was 4.21%.
In the case of CC[C@H](C)[C@@H]1NC(=O)[C@H]([C@@H](C)O)NC(=O)[C@H](CC(=O)O)NC(=O)[C@H](Cc2ccc(O)cc2)NC(=O)[C@@H]2CSSC[C@@H](C(=O)N[C@@H](CCSC)C(=O)O)NC(=O)[C@H](CCCCN)NC(=O)[C@@H]3CSSC[C@H](NC(=O)[C@H](CC(=O)O)NC(=O)[C@H](CCC(=O)O)NC(=O)[C@H](Cc4c[nH]cn4)NC(=O)[C@H]([C@@H](C)O)NC(=O)[C@H](C(C)C)NC(=O)[C@@H](NC(=O)[C@H](C)N)CSSC[C@H](NC(=O)[C@H]([C@@H](C)O)NC(=O)CNC1=O)C(=O)N[C@@H](C(C)C)C(=O)N[C@@H](CC(=O)O)C(=O)NCC(=O)N[C@@H](CCCCN)C(=O)N3)C(=O)N[C@@H]([C@@H](C)O)C(=O)N[C@@H](CC(C)C)C(=O)N[C@@H](CC(C)C)C(=O)N2 [ImKTx104] (H-ACVTHEDCTLLCYDTIGTCVDGKCKCM-OH; disulfide 2-19, 8-24, 12-26), the “Effect on TRPV1 channel (in words)” value [4] is reported as “negligible effects”, the “Effect on Kv1.2 channel (in words)” value [8] is reported as “no effect” and the “Effect on SKCa channel (in words)” value [5] is reported as “negligible effects”. The “Effect on KCNQ1 channel (in words)” value ([1]; 10 µM concentration) was “effectively blocked”, the “τoff (time constant of washing off process), KCNQ1 channel current” value ([1]; measured at 10 µM) was 11.73 s and the “τon (time constant of binding process), KCNQ1 channel current” value ([1]; measured at 10 µM) was 81.32 s. The “Effect on BKCa channel (in words)” value [6] was “negligible effects”, the “Effect on Kv1.3 channel (in words)” value [7] was “minor effect” and the inhibition at 10 µM [3] was 41.7%. The inhibition at 1 µM [3] was 27.5% and the “Effect on Kv1.1 channel (in words)” value [9] was “no effect”.
Compound CC[C@H](C)[C@@H]1NC(=O)[C@H]([C@@H](C)O)NC(=O)[C@H](CC(=O)O)NC(=O)[C@H](Cc2ccc(O)cc2)NC(=O)[C@@H]2CSSC[C@@H](C(=O)N[C@@H](CCSC)C(=O)O)NC(=O)[C@H](CCCCN)NC(=O)[C@@H]3CSSC[C@H](NC(=O)[C@H](CC(=O)O)NC(=O)[C@H](CCC(=O)O)NC(=O)[C@H](Cc4c[nH]cn4)NC(=O)[C@H]([C@@H](C)O)NC(=O)[C@H](C(C)C)NC(=O)[C@@H](NC(=O)[C@H](C)N)CSSC[C@H](NC(=O)[C@H]([C@@H](C)O)NC(=O)CNC1=O)C(=O)N[C@@H](C(C)C)C(=O)N[C@@H](CC(=O)O)C(=O)NCC(=O)N[C@@H](C)C(=O)N3)C(=O)N[C@@H]([C@@H](C)O)C(=O)N[C@@H](CC(C)C)C(=O)N[C@@H](CC(C)C)C(=O)N2 [ImKTX104-K23A] (H-ACVTHEDCTLLCYDTIGTCVDGACKCM-OH; disulfide 2-19, 8-24, 12-26) has an inhibition at 1 µM [3] of 15.5%.
With CC[C@H](C)[C@@H]1NC(=O)[C@H](C)NC(=O)[C@H](CCC(=O)O)NC(=O)[C@H](CO)NC(=O)[C@H]([C@@H](C)CC)NC(=O)[C@@H]2CCCN2C(=O)[C@@H](NC(=O)[C@H](CC(=O)O)NC(=O)CNC(=O)[C@@H](N)CCC(=O)O)CSSC[C@@H]2NC(=O)[C@H](C(C)C)NC(=O)[C@H](CCC(=O)O)NC(=O)[C@H](C(C)C)NC(=O)[C@H](CCCCN)NC(=O)[C@H](CCC(=O)O)NC(=O)[C@H](CCCCN)NC(=O)[C@@H]3CSSC[C@@H](C(=O)N[C@@H](CO)C(=O)NCC(=O)O)NC(=O)[C@H](CCCCN)NC(=O)[C@H](CSSC[C@H](NC(=O)[C@H](CCCCN)NC1=O)C(=O)N[C@@H](C(C)C)C(=O)N[C@@H](CCC(=O)O)C(=O)N[C@@H](CCCCN)C(=O)N3)NC(=O)[C@H](C(C)C)NC(=O)CNC(=O)[C@@H]1CCCN1C(=O)[C@H](CCC(=O)O)NC2=O [LmKTx2] (H-EGDCPISEAIKCVEKCKEKVEVCEPGVCKCSG-OH; disulfide 4-23, 12-28, 16-30) the “Effect on KCNQ1 channel (in words)” value ([1]; 10 µM concentration) was “only weakly inhibited”, the “Effect on Kv1.3 channel (in words)” value [7] was “minor effect” and the inhibition at 10 µM [3] was 27.7%.
